Literature values, collected in patent US12365919B2, “Serum-free suspension system for lentiviral production” (priority 2016, dated 2025).

System: lentiviral vector production
Settings: serum-based culture system; worked only ~50% as well as caffeine

CCCC(=O)[O-].[Na+] [sodium butyrate]
lentiviral vector production enhancement, relative to caffeine: ~50%
